Assay [1] addresses FBXL10 (Homo sapiens (Human), UniProt Q8NHM5). In words: FBXL10 in vitro enzyme inhibition assay (AlphaScreen). Format: biochemical. Conditions: 0.3 nM FBXL10, H3K36me2-biotin peptide. The text has this:
(§1) This assay determines the ability of a test compound to inhibit FBXL11, FBXL10, and PHF8 demethylase activity. Baculovirus expressed FBXL11 (GenBank Accession #NM_012308, AA1-1162) was purchased from BPS Bioscience (Cat#50102). Baculovirus expressed FBXL10 (GenBank Accession #NM_032590, AA 1-650) was purchased from BPS Bioscience (Cat #50120). Baculovirus expressed PHF8 (GenBank Accession NP_055922.1) was purchased from Active Motif (Cat#31435).
The ability of test compounds to inhibit the activity of FBXL10 was determined in 384-well plate format under the following reaction conditions: 0.3 nM FBXL10, 30 nM H3K36me2-biotin labeled peptide (Anaspec cat #64442), 0.2 μM alpha-ketoglutaric acid in assay buffer of 50 mM HEPES, pH7.3, 0.005% Brij35, 0.5 mM TCEP, 0.2 mg/ml BSA, 50 μM sodium L-ascorbate, 5 μM ammonium iron(II) sulfate. Reaction product is determined quantitatively by AlphaScreen detection after the addition of detection reagents anti-H3K36me1 antibody, AlphaScreen® Streptavidin-coated Donor beads, and AlphaScreen® Protein A Acceptor beads in 50 mM HEPES, pH7.3, 10 mM NaCl, 0.005% Brij35, 5 mM EDTA, 2 mg/ml BSA to final 10 μg/ml beads.
The assay reaction was initiated by the following: 3 μl of the mixture of 90 nM H3K36me2-biotin labeled peptide and 0.6 μM alpha-ketoglutaric acid with 3 μl of 11-point serial diluted inhibitor in 3% DMSO are added to each well of 384 well Proxiplate (Perkin Elmer), followed by the addition of 3 μl of 0.9 nM FBXL10 to initiate the reaction. The reaction mixture is incubated at room temperature for 1 hour, and terminated by the addition of 3 μl of appropriate dilution of anti H3K36me1 antibody in 50 mM HEPES, pH7.3, 10 mM NaCl, 0.005% Brij35, 5 mM EDTA, 2 mg/ml BSA. Plates will then incubated at room temperature for 40 minutes, followed by addition of 3 ul of 50 μg/ml AlphaScreen® Streptavidin-coated Donor beads and AlphaScreen® Protein A Acceptor beads in 50 mM HEPES, pH7.3, 10 mM NaCl, 0.005% Brij35, 5 mM EDTA, 2 mg/ml BSA. Plates will then be read by EnVision Multilabel Reader in AlphaScreen mode after minimum 2 hour incubation at room temperature. The AlphaScreen signal for each well is used to determine inhibition constant (IC50).
(§2) The ability of the compounds disclosed herein to inhibit demethylase activity was quantified and the respective IC50 value was determined.
A general note: Alpha assays give light when donor and acceptor beads are brought close together.

The target of assay [2] is PHF8 (Homo sapiens (Human), UniProt Q9UPP1). In words: PHF8 in vitro enzyme inhibition assay (TR-FRET). As to conditions: 3 nM PHF8, H3K9me1-biotin peptide. Format: biochemical.
PHF8, sequence (Q9UPP1 37-1060): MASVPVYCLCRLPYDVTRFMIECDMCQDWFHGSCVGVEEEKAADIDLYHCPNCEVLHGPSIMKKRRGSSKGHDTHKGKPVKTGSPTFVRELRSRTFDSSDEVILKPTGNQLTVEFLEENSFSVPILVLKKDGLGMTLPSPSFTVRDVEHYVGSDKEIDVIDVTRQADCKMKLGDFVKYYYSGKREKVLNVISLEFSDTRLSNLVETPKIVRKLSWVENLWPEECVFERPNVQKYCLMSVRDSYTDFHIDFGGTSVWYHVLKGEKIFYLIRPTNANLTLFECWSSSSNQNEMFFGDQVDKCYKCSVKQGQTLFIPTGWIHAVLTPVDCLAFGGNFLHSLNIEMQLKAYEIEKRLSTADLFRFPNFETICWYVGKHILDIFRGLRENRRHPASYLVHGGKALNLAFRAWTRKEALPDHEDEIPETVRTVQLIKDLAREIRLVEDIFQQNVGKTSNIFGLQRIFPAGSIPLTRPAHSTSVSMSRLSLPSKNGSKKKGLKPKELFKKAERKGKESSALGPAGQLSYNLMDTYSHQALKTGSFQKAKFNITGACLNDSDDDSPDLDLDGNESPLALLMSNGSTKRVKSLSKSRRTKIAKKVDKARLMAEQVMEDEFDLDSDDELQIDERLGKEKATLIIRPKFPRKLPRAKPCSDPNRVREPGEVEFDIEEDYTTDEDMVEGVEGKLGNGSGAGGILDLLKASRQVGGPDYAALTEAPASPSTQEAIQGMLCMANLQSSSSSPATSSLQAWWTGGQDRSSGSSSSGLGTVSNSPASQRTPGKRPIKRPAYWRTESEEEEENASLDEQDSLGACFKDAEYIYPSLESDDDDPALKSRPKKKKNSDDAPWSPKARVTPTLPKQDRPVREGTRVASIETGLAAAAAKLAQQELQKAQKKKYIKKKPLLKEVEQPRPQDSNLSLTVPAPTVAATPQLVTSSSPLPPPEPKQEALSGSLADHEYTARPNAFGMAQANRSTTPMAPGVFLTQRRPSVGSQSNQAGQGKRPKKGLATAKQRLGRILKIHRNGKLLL
Description: as §1
The ability of test compounds to inhibit the activity of PHF8 was determined in 384-well plate format under the following reaction conditions: 3 nM PHF8, 200 nM H3K9me1-biotin labeled peptide (Anaspec cat #64358), 0.5 μM alpha-ketoglutaric acid in assay buffer of 50 mM HEPES, pH7.3, 0.005% Brij35, 0.5 mM TCEP, 0.2 mg/ml BSA, 50 μM sodium L-ascorbate, and 5 μM ammonium iron(II) sulfate. Reaction product was determined quantitatively by TR-FRET after the addition of detection reagent Phycolink Streptavidin-allophycocyanin (Prozyme) and Europium-anti-unmodified-histone H3 lysine 9/lysine27 (H3K9/K27) antibody (PerkinElmer) in the presence of 5 mM EDTA in LANCE detection buffer (PerkinElmer) at a final concentration of 25 nM and 0.5 nM, respectively.
The assay reaction was initiated by the following: 2 μl of the mixture of 600 nM H3K9me1-biotin labeled peptide and 1.5 μM alpha-ketoglutaric acid with 2 μl of 11-point serial diluted inhibitor in 3% DMSO were added to each well of the plate, followed by the addition of 2 μl of 9 nM PHF8 to initiate the reaction. The reaction mixture was incubated at room temperature for 15 minutes, and terminated by the addition of 6 μl of 5 mM EDTA in LANCE detection buffer containing 50 nM Phycolink Streptavidin-allophycocyanin and 1 nM Europium-anti-unmodified H3K9/K27 antibody. Plates were read by EnVision Multilabel Reader in TR-FRET mode (excitation at 320 nm, emission at 615 nm and 665 nm) after 1 hour incubation at room temperature. A ratio was calculated (665/615) for each well and fitted to determine inhibition constant (IC50).
as §2
Background: TR-FRET usually uses a lanthanide donor and a delayed reading to cut background.

The text below walks through data of patent publication US10071984B2, “Histone demethylase inhibitors” (Celgene Quanticel Research, Inc., priority 2014, dated 2018).

FBXL10, sequence (Q8NHM5 1-650): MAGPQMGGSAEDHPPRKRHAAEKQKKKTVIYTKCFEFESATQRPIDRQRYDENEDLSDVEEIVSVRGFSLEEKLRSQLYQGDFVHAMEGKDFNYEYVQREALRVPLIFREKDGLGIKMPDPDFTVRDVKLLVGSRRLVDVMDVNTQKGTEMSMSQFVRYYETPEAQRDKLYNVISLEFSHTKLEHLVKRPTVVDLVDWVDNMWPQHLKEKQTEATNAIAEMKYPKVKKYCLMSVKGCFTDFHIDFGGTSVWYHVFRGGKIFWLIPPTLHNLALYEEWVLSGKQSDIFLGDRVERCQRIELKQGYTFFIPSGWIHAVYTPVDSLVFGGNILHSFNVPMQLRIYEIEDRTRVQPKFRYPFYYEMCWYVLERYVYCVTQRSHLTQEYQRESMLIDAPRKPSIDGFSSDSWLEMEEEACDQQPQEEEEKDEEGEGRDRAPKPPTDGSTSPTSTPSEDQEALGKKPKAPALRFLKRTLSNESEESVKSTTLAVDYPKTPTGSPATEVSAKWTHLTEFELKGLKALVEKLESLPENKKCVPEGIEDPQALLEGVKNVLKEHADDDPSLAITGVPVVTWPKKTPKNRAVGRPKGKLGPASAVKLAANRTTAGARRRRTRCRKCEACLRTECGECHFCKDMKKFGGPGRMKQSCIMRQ

As to `Cn1cnc(-c2cc(-c3c[nH]nn3)ccn2)c1-c1ccc(F)cc1` [Example 3, 2-[5-(4-fluorophenyl)-1-methylimidazol-4-yl]-4-(1H-triazol-4-yl)pyridine], the half-maximal inhibitory concentration (IC50) in assay [1] is at most 100 nM; in assay [2], 100 to 1000 nM.
The like results for `FC(F)(F)COc1ccccc1CCn1cnc(-c2cc(-c3c[nH]nn3)ccn2)c1` [Example 10, 4-(1H-triazol-4-yl)-2-[1-[2-[2-(2,2,2-trifluoroethoxy)phenyl]ethyl]imidazol-4-yl]pyridine] were, in that order, at most 100 nM and 100 to 1000 nM.
For `c1ccc(OCC2CC2)c(CCn2cnc(-c3cc(-c4c[nH]nn4)ccn3)c2)c1` [Example 11, 2-[1-[2-[2-(cyclopropylmethoxy)phenyl]ethyl]imidazol-4-yl]-4-(1H-triazol-4-yl)pyridine], in that order: at most 100 nM and 100 to 1000 nM.
The like results for `c1ccc2c(c1)OCCC2Cn1cnc(-c2cc(-c3c[nH]nn3)ccn2)c1` (stereo not drawn) [Example 12, 2-[1-(3,4-dihydro-2H-chromen-4-ylmethyl)imidazol-4-yl]-4-(1H-triazol-4-yl)pyridine] were, in that order, at most 100 nM and at most 100 nM.
Take `N#Cc1[nH]nnc1-c1ccnc(-c2cn(Cc3ccccc3Cl)cn2)c1` [Example 13, 4-[2-[1-[(2-chlorophenyl)methyl]imidazol-4-yl]pyridin-4-yl]-1H-triazole-5-carbonitrile]: the concentration for half-maximal inhibition (IC50) in assay [1] is at most 100 nM; in assay [2], 1000 to 10000 nM.
As for `N#Cc1[nH]nnc1-c1ccnc(-c2cn(Cc3cccc(Cl)c3Cl)cn2)c1` [Example 14, 4-[2-[1-[(2,3-dichlorophenyl)methyl]imidazol-4-yl]pyridin-4-yl]-1H-triazole-5-carbonitrile], the IC50 in assay [1] was at most 100 nM; in assay [2], 1000 to 10000 nM.
The like results for `N#Cc1[nH]nnc1-c1ccnc(-c2cn(CC3CCCc4ccccc43)cn2)c1` (stereo not drawn) [Example 15, 4-[2-[1-(1,2,3,4-tetrahydronaphthalen-1-ylmethyl)imidazol-4-yl]pyridin-4-yl]-1H-triazole-5-carbonitrile] were, in that order, at most 100 nM and 100 to 1000 nM.
`N#Cc1[nH]nnc1-c1ccnc(-c2cn(CCc3cccc4ccccc34)cn2)c1` [Example 16, 4-[2-[1-(2-naphthalen-1-ylethyl)imidazol-4-yl]pyridin-4-yl]-1H-triazole-5-carbonitrile]: the IC50 in assay [1] was at most 100 nM; in assay [2], 100 to 1000 nM.
The like results for `c1ccc(COc2ccccc2CCn2cnc(-c3cc(-c4c[nH]nn4)ccn3)c2)cc1` [Example 17, 2-[1-[2-(2-phenylmethoxyphenyl)ethyl]imidazol-4-yl]-4-(1H-triazol-4-yl)pyridine] were, in that order, at most 100 nM and 1000 to 10000 nM.
For `c1ccc(Oc2ccccc2CCn2cnc(-c3cc(-c4c[nH]nn4)ccn3)c2)cc1` [Example 18, 2-[1-[2-(2-phenoxyphenyl)ethyl]imidazol-4-yl]-4-(1H-triazol-4-yl)pyridine], in that order: at most 100 nM and 1000 to 10000 nM.
The like results for `Clc1cccc(Cn2cnc(-c3cc(-c4nn[nH]c4I)ccn3)c2)c1Cl` [Example 19, 2-[1-[(2,3-dichlorophenyl)methyl]imidazol-4-yl]-4-(5-iodo-1H-triazol-4-yl)pyridine] were, in that order, at most 100 nM and 100 to 1000 nM.
Consider `Fc1[nH]nnc1-c1ccnc(-c2cn(Cc3cccc(Cl)c3Cl)cn2)c1` [Example 20, 2-[1-[(2,3-dichlorophenyl)methyl]imidazol-4-yl]-4-(5-fluoro-1H-triazol-4-yl)pyridine], for which the IC50 in assay [1] is at most 100 nM; in assay [2], 100 to 1000 nM.
Regarding `COc1cc(-c2c(-c3cc(-c4c[nH]nn4)ccn3)ncn2C)ccc1F` [Example 24, 2-[5-(4-fluoro-3-methoxyphenyl)-1-methylimidazol-4-yl]-4-(1H-triazol-4-yl)pyridine], the IC50 in assay [1] is at most 100 nM; in assay [2], 100 to 1000 nM.
`Fc1c(Cn2cnc(-c3cc(-c4c[nH]nn4)ccn3)c2)cccc1OC(F)(F)F` [Example 26, 2-[1-[[2-fluoro-3-(trifluoromethoxy)phenyl]methyl]imidazol-44-yl]-4-(1H-triazol-4-yl)pyridine]: the IC50 in assay [2] is 1000 to 10000 nM.
The same measure, in the same setting: as for `c1ccc(-c2ccccc2CCn2cnc(-c3cc(-c4c[nH]nn4)ccn3)c2)cc1` [Example 27, 2-[1-[2-(2-phenylphenyl)ethyl]imidazol-4-yl]-4-(1H-triazol-4-yl)pyridine], the figure is 1000 to 10000 nM.
For the compound `Cc1cccc(Cn2cnc(-c3cc(-c4c[nH]nn4)ccn3)c2)c1F` [Example 28, 2-[1-[(2-fluoro-3-methylphenyl)methyl]imidazol-4-yl]-4-(1H-triazol-4-yl)pyridin], the concentration for half-maximal inhibition (IC50) in assay [1] was at most 100 nM; in assay [2], 100 to 1000 nM.
For the compound `Fc1c(Cl)cccc1Cn1cnc(-c2cc(-c3c[nH]nn3)ccn2)c1` [Example 29, 2-[1-[(3-chloro-2-fluorophenyl)methyl]imidazol-4-yl]-4-(1H-triazol-4-yl)pyridine], the IC50 in assay [1] and in assay [2] was at most 100 nM throughout.
Consider `COc1cccc(Cn2cnc(-c3cc(-c4c[nH]nn4)ccn3)c2)c1F` [Example 30, 2-[1-[(2-fluoro-3-methoxyphenyl)methyl]imidazol-4-yl]-4-(1H-triazol-4-yl)pyridine], for which the figures for the IC50 in assay [1] and in assay [2] were at most 100 nM and 100 to 1000 nM, respectively.
Consider `FC(F)(F)c1ccccc1CCn1cnc(-c2cc(-c3c[nH]nn3)ccn2)c1` [Example 31, 4-(1H-triazol-4-yl)-2-[1-[2-[2-(trifluoromethyl)phenyl]ethyl]imidazol-4-yl]pyridine], for which the IC50 is at most 100 nM in assay [1] and 100 to 1000 nM in assay [2].
As to `CC(C)(Cn1cnc(-c2cc(-c3c[nH]nn3)ccn2)c1)c1ccccc1Cl` [Example 32, 2-[1-[2-(2-chlorophenyl)-2-methylpropyl]imidazol-4-yl]-4-(1H-triazol-4-yl)pyridine], the 50% inhibitory concentration (IC50) in assay [1] is at most 100 nM; in assay [2], 100 to 1000 nM.
Compound `CC(Cc1ccccc1)n1cnc(-c2cc(-c3c[nH]nn3)ccn2)c1` (stereo not drawn) [Example 33, 2-[1-(1-phenylpropan-2-yl)imidazol-4-yl]-4-(1H-triazol-4-yl)pyridine] registered a half-maximal inhibitory concentration (IC50) in assay [2] of 1000 to 10000 nM.
As for `Fc1[nH]nnc1-c1ccnc(-c2cn(CCc3cccc4ccccc34)cn2)c1` [Example 35, 4-(5-fluoro-1H-triazol-4-yl)-2-[1-(2-naphthalen-1-ylethyl)imidazol-4-yl]pyridine], the half-inhibitory concentration (IC50) was at most 100 nM in assay [1] and 100 to 1000 nM in assay [2].
Turning to `Clc1[nH]nnc1-c1ccnc(-c2cn(CCc3cccc4ccccc34)cn2)c1` [Example 36, 4-(5-chloro-1H-triazol-4-yl)-2-[1-(2-naphthalen-1-ylethyl)imidazol-4-yl]pyridine], the IC50 was at most 100 nM in assay [1] and 1000 to 10000 nM in assay [2].
`FC(F)(F)c1[nH]nnc1-c1ccnc(-c2cn(CCc3cccc4ccccc34)cn2)c1` [Example 37, 2-[1-(2-naphthalen-1-ylethyl)imidazol-4-yl]-4-[5-(trifluoromethyl)-1H-triazol-4-yl]pyridine]: the 50% inhibitory concentration (IC50) in assay [1] is at most 100 nM; in assay [2], over 10000 nM.

The term IC50 denotes the concentration that gives 50% inhibition. A low value points to greater potency in that assay.
